Measured values reported in ChEMBL document CHEMBL3596170, “Synthesis of 1H-1,2,3-triazole linked aryl(arylamidomethyl) - dihydrofurocoumarin hybrids and analysis of their cytotoxicity” (2015).

Columns and labels:
Format in all cases: functional
[1] = Cytotoxicity against human CEM13 cells assessed as cell death after 72 hrs by MTT assay
MT4 = assay: Cytotoxicity against human MT4 cells assessed as cell death after 72 hrs by MTT assay
U-937 = assay: Cytotoxicity against human U937 cells assessed as cell death after 72 hrs by MTT assay

Row | SMILES | CTD50 [1] [µM] | CTD50 (MT4) [µM] | CTD50 (U-937) [µM]
1 | COc1cccc2c1C(=O)c1c(O)c3c(c(O)c1C2=O)C[C@@](O)(C(=O)CO)C[C@@H]3O[C@H]1C[C@H](N)[C@H](O)[C@H](C)O1 [DOXORUBICIN] | 7.4 | 3.4 | 0.2
2 | COc1ccc(-c2cn(C3(C(C)C)Oc4cc5oc(=O)ccc5cc4C3=O)nn2)c(OC)c1OC (configuration not stated) | 32 | 27 | 45
3 | COc1cc(-c2cn(C3(C(C)C)Oc4cc5oc(=O)ccc5cc4C3=O)nn2)ccc1OCc1ccccc1 (configuration not stated) | 25 | 28 | 28
4 | CC(C)C1(n2cc(CNC(=O)c3cc(O)cc(O)c3)nn2)Oc2cc3oc(=O)ccc3cc2C1=O (configuration not stated) | 16 | 22 | 23
5 | CC(C)C1(n2cc(-c3ccccc3)nn2)Oc2c(cc3ccc(=O)oc3c2CN2CCN(C)CC2)C1=O (configuration not stated) | 32 | 33 | 25
6 | CC(C)C1(n2cc(-c3ccc4c(c3)OCCO4)nn2)Oc2c(cc3ccc(=O)oc3c2CN2CCN(C)CC2)C1=O (configuration not stated) | 10 | 13 | 10
7 | CC(C)C1(n2cc(-c3ccc4c(c3)OCCO4)nn2)Oc2cc3oc(=O)ccc3cc2C1=O (configuration not stated) | 15 | 11 | 8
8 | CC(C)C1(n2cc(-c3ccccc3)nn2)Oc2cc3oc(=O)ccc3cc2C1=O (configuration not stated) | 51 | 70 | 31
9 | CC(C)C1(n2cc(CNC(=O)c3cc(O)c(O)c(O)c3)nn2)Oc2cc3oc(=O)ccc3cc2C1=O (configuration not stated) | 11 | 12 | 20
10 | CC(C)C1(N=[N+]=[N-])Oc2cc3oc(=O)ccc3cc2C1=O (configuration not stated) | 49 | 50 | 53
11 | CC(C)C1(N=[N+]=[N-])Oc2c(cc3ccc(=O)oc3c2CN2CCN(C)CC2)C1=O (configuration not stated) | 58 | 62 | 45
12 | COc1ccc(/C=C/C(=O)NCc2cn(C3(C(C)C)Oc4c(cc5ccc(=O)oc5c4CN4CCN(C)CC4)C3=O)nn2)c(OC)c1 (configuration not stated) | 16 | 13 | 16
13 | CC(C)C1(n2cc(-c3cc([N+](=O)[O-])ccc3O)nn2)Oc2cc3oc(=O)ccc3cc2C1=O (configuration not stated) | 21 | 11 | 20
14 | COc1c(C(C)C)oc2cc3oc(=O)ccc3cc12 [PEUCEDANIN] | 81 | 67 | 58
15 | CC(C)C1(n2cc(CNC(=O)c3ccc(N)cc3O)nn2)Oc2cc3oc(=O)ccc3cc2C1=O (configuration not stated) | 17 | 13 | 24
16 | COc1cc(C(=O)NCc2cn(C3(C(C)C)Oc4cc5oc(=O)ccc5cc4C3=O)nn2)ccc1O (configuration not stated) | 9 | 10 | 8
17 | COc1cc(OC)cc(C(=O)NCc2cn(C3(C(C)C)Oc4cc5oc(=O)ccc5cc4C3=O)nn2)c1 (configuration not stated) | 18 | 19 | 45
18 | COc1ccc(/C=C/C(=O)NCc2cn(C3(C(C)C)Oc4cc5oc(=O)ccc5cc4C3=O)nn2)c(OC)c1 (configuration not stated) | 30 | 22 | 25
19 | CC(C)C1(n2cc(-c3cc([N+](=O)[O-])ccc3O)nn2)Oc2c(cc3ccc(=O)oc3c2CN2CCN(C)CC2)C1=O (configuration not stated) | 11 | 11 | 17
